Assay results published in patent US7812042B2, “Pharmaceutical compositions and therapeutic applications for the use of a novel vitamin B12 derivative, N-acetyl-L-cysteinylcobalamin” (priority 2006, dated 2010).
Values joined by “and” are separate entries in the source; they are usually repeats but may differ in a detail not shown here. Identical values can stand only once.

Legend:
[1] = test system: Hsp32; experiment: Hsp32 gene expression in SK-HEP-1 cells (RT-PCR, densitometry); type: cell-based, Human; conditions: homocysteine 30 μM, folate 30 μM (2 hr), Sn(IX) protoporphyrin 25 μM, quercitin 15 μM
Experimental: Cells were plated into 6-, 12-, or 24-well cell culture clusters, at 2×10^3, 2×10^5, or 1×10^5 cells per well and incubated until 90% confluent. Treatments were applied as above.
Following incubation, cells were subjected to mRNA extraction followed by cDNA synthesis for each sample under test. Polymerase chain reaction cDNA templates were prepared for simplex PCR protocol. PCR products were then visualized using a UV Transilluminator and images captured using a Kodak ID gel imaging system. Densitometry and statistical analysis was then performed on each gene expression band image using PSP® v 10.0 running under Windows XP®.
mRNA extraction was performed using the Quickprep micro mRNA Purification Kit. Following incubation of cells post-treatment, the media was removed from the cells, adherent cells were re-suspended in 0.4 ml extraction buffer and 0.8 ml elution buffer at 65° C. was added.
A reaction mixture was prepared in individual microcentrifuge tubes containing 2 cDNA synthesis beads, 32 μl of the mRNA solution and 1 μl of pd(N)6. This mixture was incubated at 37° C. in a water bath for 60 minutes. After incubation, 27 μl of RNase-free DEPC treated water was added to each tube to make a total volume 60 μl. cDNA samples were prepared in duplicate. Sample 1 was used immediately in RT-PCR protocol. Sample 2 was prepared for qPCR protocol by the addition of 150 μl of 95% ice-cold ethanol and stored at −20° C.
Microcentrifuge tubes from puReTaq™Ready-To-Go™ PCR Beads containing one PCR bead were labeled for each sample required. Added to the PCR bead were 17 μl of RNase-free DEPC treated water, 1 μl sense primer, 1 μl anti-sense primer and 5 μl of the cDNA solution. RT-PCR conditions were as follows: Hsp70 and β-actin, pre-treatment step, 94° C. for 1 minute, followed by denaturing at 92° C. for 1 minute, annealing at 60° C. for 1 minute and extension at 72° C. for 1 minute. Total cycles, 30, post-treatment was then carried out at 72° C. for 10 minutes. For Hsp32, pre-treatment step, 95° C. for 2 minutes, followed by denaturing at 94° C. for 30 seconds, annealing at 58° C. for 1 minute and extension at 72° C. for 1 minute. Total cycles 45, post treatment was then carried out at 72° C. for 10 minutes. Following RT-PCR, samples were stored at −20° C.
Amplification products were separated on a 1.8% agarose gel (m/v) in TAE buffer. The size of the PCR products was determined by comparison to DNA fragments of a well-defined size; therefore, 5 μl of the DNA Ladder was carefully pipetted into the first well of the gel. Successive 10 μl of each PCR sample was then pipetted into subsequent wells on the agarose gel. The gel was connected to the Power Pack and run at 100V for 30 minutes.
Gels were visualised on a UV Transilluminator. Photographs were stored using a Kodak Digital camera system fitted with a UV filter set connected to a PC. Images were then transferred to the Kodak ID gel imaging system. Densitometry was performed on each gene expression band using PSP™ v10 running under Windows XP®.
Experiments were conducted using Hsp32 and Hsp 70 gene expression as the basis for study. […] (all treatments for 2 hours).

[2] = test system: SK-HEP-1 cells; experiment: NACCbl protection from homocysteine with Hsp32/Hsp70 inhibited by Sn(IX) protoporphyrin, quercitin or siRNA (MTS assay); type: cell-based, Human; conditions: for cell viability (MTS), raw readings (FIG. 11): NACCbl 30 μM pre-treatment two hours with/without Sn(IX)PP, quercetin, replicates 1-6
From the text: siRNAs for human HO-1 were synthesised in 2′-deprotected, duplexed, desalted and purified form by Dharmacon Research Inc., published sequences from Zhang et al., (Zhang, Shan et al. 2004). Human Hsp70 primers were from proprietary sequences, and all control non-targeting primer sequences were also synthesised by Dharmacon Research Inc.
Transfection was optimised using a standard siControl Tox protocol. All transfection experiments included non-targeted siRNA.
Cells were trypsinized and plated into 12- or 96-well plates at cell density of 2×10^5, then incubated for 24 hours until adherent. Complexed siRNA and transfection agent at 100 nm was added directly to each experimental well. Plates were incubated at 37° C. for 32.5 hours for mRNA gene analysis experiments or 72 hours for protein analysis by Western Blot.
Complexed siRNA and transfection agent was added to each well of either 12- or 96-well plates. Cells were then trypsinized and added directly into each test well at cell density of 2×10^5. Plates were incubated at 37° C. for 32.5 hours for mRNA gene analysis experiments or 72 hours for protein analysis by Western Blot.
Hsp32 was inhibited using either Sn (IX) protoporhyrin or using an siRNA which specifically knocks out Hsp32. Hsp70 was inhibited using quercitin or using an siRNA which specifically knocks out Hsp70. In addition, two methods were used to inhibit both Hsp32 and Hsp70: chemically Sn (IX) protoporphyrin plus quercitin was used; and then, directly, a combination of the siRNA for both genes was used simultaneously.

[3] = test system: SK-HEP-1 cells; experiment: Effect of high concentrations of NACCbl and GSCbl on SK-HEP-1 cells (MTS assay); type: cell-based, Human; parameters: cell viability (MTS), raw readings (FIG. 13): reference not given here; conditions: 24 hours; for cell viability (MTS), raw readings (FIG. 13): 3 replicates
[4] = test system: U937 (monocytes); experiment: Survival of U937 cells at variable concentration of Hcy; type: cell-based; conditions: NACCbl 30 μM, NAC 75 μM, CNCbl 15 μM, folate 30 μM; especially at higher homocysteine concentrations
Experimental: (§1) Additional cell studies were conducted using Jurkat (T-cells) and U937 (monocyte) cell lines. These experiments confirmed that other cell types are killed by homocysteine, although these cell lines are not as sensitive as the SK-HEP-1 cell line discussed in the experiments above and are thus more resistant to homocysteine. Cells were exposed to NACCbl 30 μM, NAC 75 μM, CNCbl 15 μM, and folate 30 μM. […] In these Figures, the monocytes are N=6 and concentrations are as follows: NACCbl 30 μM, NAC 75 μM, CNCbl 15 μM, Folate 30 μM

[5] = test system: Jurkat (T-cells); experiment: Survival of Jurkat cells at variable concentration of Hcy; type: cell-based; conditions: NACCbl 30 μM, NAC 75 μM, CNCbl 15 μM, folate 30 μM; especially at higher homocysteine concentrations
Experimental: as §1

CC(=O)NC(C[S-])C(=O)O.CC1=C2N=C(C=C3N=C(C(C)=C4[N-]C(C(CC(N)=O)C4(C)CCC(=O)NCC(C)OP(=O)([O-])OC4C(CO)OC(n5cnc6cc(C)c(C)cc65)C4O)C4(C)N=C1C(CCC(N)=O)C4(C)CC(N)=O)C(CCC(N)=O)C3(C)C)C(CCC(N)=O)C2(C)CC(N)=O.[Co+3] [NACCbl, N-acetyl-L-cysteinylcobalamin]
effect on Hsp32 gene expression [1]: induce Hsp32
cell viability (MTS), raw readings (FIG. 11) ([2]; Hcy 0): 2.885 and 2.698 and 2.821 and 2.771 and 2.691 and 2.7
cell viability (MTS), raw readings (FIG. 11) ([2]; Hcy 1.78 (μM) two hours, where named): 2.647 and 2.551 and 2.789 and 2.89 and 2.549 and 2.611
cell viability (MTS), raw readings (FIG. 11) ([2]; Hcy 3.125 (μM) two hours, where named): 2.453 and 2.338 and 2.36 and 2.317 and 2.418 and 2.535
cell viability (MTS), raw readings (FIG. 11) ([2]; Hcy 6.25 (μM) two hours, where named): 2.41 and 2.4 and 2.322 and 2.201 and 2.115 and 2.187
cell viability (MTS), raw readings (FIG. 11) ([2]; Hcy 12.5 (μM) two hours, where named): 2.21 and 2.11 and 2.045 and 2.065 and 2.101 and 2.324
cell viability (MTS), raw readings (FIG. 11) ([2]; Hcy 25 (μM) two hours, where named): 2.1 and 2.19 and 1.879 and 1.937 and 1.779 and 1.837
cell viability (MTS), raw readings (FIG. 11) ([2]; Hcy 50 (μM) two hours, where named): 1.678 and 1.832 and 1.881 and 1.73 and 1.74 and 1.855
cell viability (MTS), raw readings (FIG. 11) ([2]; Hcy 100 (μM) two hours, where named): 1.678 and 1.592 and 1.694 and 1.773 and 1.732 and 1.639
cell viability (MTS), raw readings (FIG. 11) ([2]; Hcy 200 (μM) two hours, where named): 1.378 and 1.167 and 1.33 and 1.456 and 1.491 and 1.537
effect of inhibition of both Hsp32 and Hsp70 together on protection by NACCbl ([2]; both methods (chemically and directly), NACCbl 30 μM): totally removed protection
survival ([3]; 10 mM): over 60%
cell viability (MTS), raw readings (FIG. 13) ([3]; compound conc. 0.61 (μM scale)): 2.572 and 2.498 and 2.473
cell viability (MTS), raw readings (FIG. 13) ([3]; compound conc. 1.22 (μM scale)): 2.546 and 2.524 and 2.538
cell viability (MTS), raw readings (FIG. 13) ([3]; compound conc. 2.441 (μM scale)): 2.592 and 2.536 and 2.499
cell viability (MTS), raw readings (FIG. 13) ([3]; compound conc. 4.882 (μM scale)): 2.532 and 2.463 and 2.457
cell viability (MTS), raw readings (FIG. 13) ([3]; compound conc. 9.765 (μM scale)): 2.505 and 2.474 and 2.514
cell viability (MTS), raw readings (FIG. 13) ([3]; compound conc. 19.531 (μM scale)): 2.485 and 2.466 and 2.502
cell viability (MTS), raw readings (FIG. 13) ([3]; compound conc. 39.062 (μM scale)): 2.503 and 2.474 and 2.453
cell viability (MTS), raw readings (FIG. 13) ([3]; compound conc. 78.125 (μM scale)): 2.521 and 2.488 and 2.475
cell viability (MTS), raw readings (FIG. 13) ([3]; compound conc. 156.25 (μM scale)): 2.484 and 2.42 and 2.492
cell viability (MTS), raw readings (FIG. 13) ([3]; compound conc. 312.5 (μM scale)): 2.409 and 2.301 and 2.437
cell viability (MTS), raw readings (FIG. 13) ([3]; compound conc. 625 (μM scale)): 2.358 and 2.242 and 2.347
cell viability (MTS), raw readings (FIG. 13) ([3]; compound conc. 1250 (μM scale)): 2.2 and 2.055 and 2.3
cell viability (MTS), raw readings (FIG. 13) ([3]; compound conc. 2500 (μM scale)): 1.989 and 1.891 and 2.085
cell viability (MTS), raw readings (FIG. 13) ([3]; compound conc. 5000 (μM scale)): 2.081 and 2.003 and 2.004
cell viability (MTS), raw readings (FIG. 13) ([3]; compound conc. 10000 (= 10 mM)): 1.908 and 1.82 and 1.732
protection of U937 cells from death by homocysteine, comparison [4]: more effective at protecting these cells from death than NAC, CN Cbl or folate
protection of Jurkat cells from death by homocysteine, comparison [5]: more effective at protecting these cells from death than NAC, CN Cbl or folate
